Data from ChEMBL document CHEMBL3507680, “University of Dundee, Gates Library screen for HepG2 cell viability”.

Experiment: Human HepG2 cell viability assay in 384 well format
Assay type: toxicity, cell-based
Design: dose 125 nL, time 70.5 hour; cytotoxicity at 70.5 h: concentration not given beside the values
Conditions: HepG2 cells, read-out: Inhibition

| Structure (SMILES) | cytotoxicity at 70.5 h [%] |
| --- | --- |
| CC(C)c1cc(NC(=O)CNC2CCc3nc(C(C)C)nn3C2)on1 (configuration not stated) | 4.46 |
| CN1CCC(Oc2ccc(-n3ccnc3-c3nccn3C)cc2)CC1 | -8.7 |
| Cc1c[nH]c(CN(C)C(C(=O)O)c2c(F)cccc2Cl)n1 (configuration not stated) | 1.26 |
| COc1ccc(C(=O)NCC(c2cccn2C)N2CCCC2)c(OC)c1 (configuration not stated) | 14.2 |
| CC(C)C(=O)N(C)Cc1nnc2n1CCCCC2 | 25 |
| O=C(CCc1ccccc1F)N1CCCC(OCc2cccnc2)C1 (configuration not stated) | -9.56 |
| CCC(NC(=O)c1cc(NC(C)=O)ccc1Cl)c1cc(C)ccn1 (configuration not stated) | 9.03 |
| CCc1nc(CN(C)C(=O)C2CC(=O)N(c3cccc(O)c3)C2)no1 (configuration not stated) | 3.57 |
| Cc1cnc(C)c(-c2cc(O)c3c(c2)CN(c2nccs2)CCO3)n1 | -5.12 |
| COc1cccc(CNCC2CCN(CC(C)O)CC2)c1OC (configuration not stated) | -5.57 |
| Cc1ccc(F)c(OC2(C(=O)O)CCN(C(=O)C3CCCC3)CC2)c1 | -4.91 |
| CC(NC(N)=O)C(=O)Nc1ccc(OCc2cccc(F)c2)c(F)c1 (configuration not stated) | -10.3 |
| O=C(COC1CCOC1)N(CC(F)F)c1cccc(Cl)c1 (configuration not stated) | -3.13 |
| CCCN1CCN(C(=O)c2cnn(-c3ccccc3F)c2)CC1 | 8.36 |
| c1cncc(CN2CCC(c3n[nH]c(C4CC4)n3)CC2)c1 | 33.7 |
| O=C(NCc1ccc(Cl)s1)c1ccc(N2CCOC2=O)cc1 | -7.09 |
| c1ccc(N2CCC(OCC3CCCCO3)CC2)nc1 (configuration not stated) | 0.314 |
| Cc1ccc(-c2nc(CN3CCOC(Cn4cncn4)C3)cs2)o1 (configuration not stated) | -6.85 |
| OCCCN(CCc1cccc(F)c1)C1CC1 | -4.09 |
| Cc1nn(-c2ccccc2)c(C)c1CN1CCNCC1 | 27.3 |
| CCNC(=O)NC[C@H]1Cn2c(-c3ccccc3)cnc2CO1 | -3.79 |
| Cc1ccc(-c2cc(C3CCNCC3)nc(C)n2)cc1 | -6.7 |
| CCc1nc(CN2CCCC(NCc3ncc(C(C)(C)C)o3)C2)no1 (configuration not stated) | 8.8 |
| CC(C)c1n[nH]c(C2CN(C(=O)Cn3ccccc3=O)CCO2)n1 (configuration not stated) | -2.65 |

| Structure (SMILES) | cytotoxicity at 70.5 h [%] |
| --- | --- |
| Cc1cnc(C(=O)N2C[C@H]3CC[C@@H]2CN(c2cnccn2)C3)cn1 | -2.4 |
| CC(NC(=O)Nc1ccncc1)c1ccc2c(c1)CC(=O)N2 (configuration not stated) | -7.01 |
| CNC(=O)c1cnc2n1CCN(Cc1cccnc1OC)C2 | -4.55 |
| Cc1cc(=O)n2nc(Oc3ccc(F)c(F)c3)sc2n1 | 40.7 |
| O=C(c1cccnc1-n1cncn1)N1CCC(Nc2ccccc2)CC1 | -0.978 |
| C=C(C)CN1CCN(CCC(=O)Nc2ccccc2C(N)=O)CC1 | -10.8 |
| CCN1CCCC1CNCc1cc2ccccc2[nH]c1=O (configuration not stated) | -5.02 |
| CC(=O)N1CCn2c(C(=O)N(C)C)cnc2C1 | -29.5 |
| NC(=O)C(NC(=O)Cc1cnn(-c2ccccc2)n1)c1ccccc1 (configuration not stated) | -0.915 |
| O=C(NCCCN1CCOCC1)c1ccc(Cl)cc1Cl | 2.42 |
| CCOCCn1nc(C)cc1C(=O)N(C)Cc1cccc2ncccc12 | 20.2 |
| COc1c(Br)c(CC2CC(CO)=NO2)c(OC)c2c1OCO2 (configuration not stated) | -9.88 |
| CC(C)OC(=O)N1CCC(Cc2ccc(C(=O)O)cc2)C1 (configuration not stated) | 27.1 |
| O=C(NCc1ccon1)c1c(F)cc(Br)cc1F | -3.14 |
| COCCNC(=O)Cn1ccc2cccc(OC)c21 | 8.67 |
| CCN(CC1CCOC1)C(=O)c1ccc(COc2ccccc2C#N)o1 (configuration not stated) | -3.17 |
| CC(=O)c1cnc(NCCCN2CCOCC2)nc1C | 14.7 |
| O=C(Nc1cccs1)NC(CCCO)c1ccccc1 (configuration not stated) | -17.7 |
| CC(=O)N1CCN(C(=O)c2sccc2Br)CC1 | 15.1 |
| CCCc1nnc(N2C[C@@H](C)[C@@](C)(O)C2)s1 | 12 |
| Cc1cc(C)n(C2CCN(c3ncnc4c3CCC4)C2)n1 (configuration not stated) | 12.6 |
| c1cnc(-c2nc(CN3CCn4c(nnc4C4CC4)C3)cs2)nc1 | -9.61 |
| CCc1ccc(C2CCCN2C(=O)CNC(=O)CCC(C)C)o1 (configuration not stated) | -1.81 |
